Values joined by “and” are separate entries in the source; they are usually repeats but may differ in a detail not shown here. Equal values may be shown once. “Also recorded” adds a separate entry of the source. Read-outs that look alike come from different tables or passages of the source.

Data set [1] has as its target T1, APC/C activation by Cdc20 (Homo sapiens, UniProt Q12834).
T1 construct: endogenous in cells; the method paragraph speaks of HeLa cells
In words: Western blot of Cyclin B1 levels (inhibition of APC/C activation by Cdc20). Format: cell-based. The conditions noted are these: HCC-38 cells, FIG. 9. The protocol:
FIG. 9. […] Consequently, non-ubiquitylated Cyclin B escapes degradation by the proteasome. […] HCC-38 cells at a density of 200,000 cells per well were used in this study.
The entirety of the following procedure was carried out under aseptic conditions. HeLa cells were counted and seeded into clear bottom 6-well plates (Greiner Bio-One) at a density of 200,000 cells/well in a volume of 2 ml and placed in an incubator (37° C., 5% CO2) overnight. The following day medium was aspired and 1.5 ml of treatment was added to wells. Cells were treated with controls (medium alone) and compounds. All stock solutions of the small compounds were prepared by resuspension of the solid in DSMO, then diluted in medium to the final concentrations being tested. The effect of these compounds on mitosis was analysed by measuring Cyclin B1 levels, a downstream target of APC/C-Cdc20. Cells were incubated and had 24 hours treatment exposure. Plates were then placed on ice and solution from each well was aspired. […]

Data set [2] concerns HCC-38 triple negative breast cancer cells. Briefly: Clonogenic assay of HCC-38 cells. Type of data set: cell-based. Particulars: HCC-38, 24 hours treatment, stained after 12 days, FIG. 7. The protocol: FIG. 7. Clonogenic assay of HCC-38 cells treated with DMSO (1.2% v/v), the Mps1 kinase inhibitor Reversine, the Cdc20 binder Apcin and compound o-TFB-Tyr. The clones were stained after 12 days incubation at 37 Celsius. Following treatment of the HCC38 cells with the compounds for 24 hours, the medium was exchanged every 48 hrs.
The entirety of the following procedure was carried out under aseptic conditions. HeLa cells were counted and seeded into clear bottom 6-well plates (Greiner Bio-One) at density 500 cells/well (250 cells/ml). 2 ml of cells were added to each well and placed in the incubator (37° C., 5% CO2) overnight. The following day medium was aspired and 1.5 ml of treatment was added to wells. Cells were treated with control (medium alone) and compounds. All stock solutions of compounds were prepared by resuspension of the solid in DMSO, then diluted in medium to the final concentrations being tested. HeLa cells viability was measured using clonogenic assay, a cell survival-based assay that determines cell reproductive death after treatment with cytotoxic agents. Cells were incubated and had 72 hours treatment exposure. […]
Each well of the clonogenic assay was then scanned using an Axiozoom Zeiss Axioplan fluorescence microscope equipped for DIC imaging and fluorescence imaging and analysed using the ImageJ2 image-processing software (Fiji). […]

The nature of data set [3]: Kinetic solubility, turbidimetric method. Type of data set: physicochemical. The protocol:
Kinetic solubility. This is a valuable initial screen that was carried out prior to starting ADME test in order to identify potential issues and to determine appropriate concentration ranges. Kinetic solubility was measured using a turbidimetric method.

For another data set, the system named is Caco-2 cells. In words: Intestinal permeability assay in Caco-2 cells. Format: in vitro ADME, human. The protocol: (§1) This was determined using an intestinal permeability assay in Caco-2 cells, a human colorectal adenocarcinoma cell line (see FIG. 4).
Data set [4] in a line: Intestinal permeability assay in Caco-2 cells. Particulars: human. Format: in vitro ADME, human. As to the method: as §1
A short description of data set [5]: Metabolic stability test (liver microsomes). Type of data set: in vitro ADME, Human. From the text:
The liver is the major drug metabolising organ for the large majority of pharmaceutical drugs. A good in vitro model to investigate drug metabolism is based on the use of microsomes, a subcellular fraction of the liver.

The target of the next data set is CYP3A4 (Homo sapiens, UniProt P08684). In words: Cytochrome P450 inhibition IC50 determination (isoform CYP3A4). Type of data set: in vitro ADME. Particulars: for inhibition at 0.1 µM / inhibition at 0.25 µM / inhibition at 1 µM / inhibition at 2.5 µM / inhibition at 10 µM / inhibition at 25 µM: human; for inhibition at 0.1 µM: CYP3A4, 0.1 μM; for inhibition at 0.25 µM: CYP3A4, 0.25 μM; for inhibition at 1 µM: CYP3A4, 1 μM; for inhibition at 2.5 µM: CYP3A4, 2.5 μM; for inhibition at 10 µM: CYP3A4, 10 μM; for inhibition at 25 µM: CYP3A4, 25 μM. From the text: Two thirds of drugs cleared by metabolism are metabolised at least in part by the cytochrome P450 (CYP) enzymes with the isoform CYP3A4 accounting for almost 50% of all CYP activity. For this reason, we tested whether CYP3A4 is implicated in the clearance of o-TFB-Tyr. […]
Sequence of CYP3A4 (P08684 whole entry, canonical isoform): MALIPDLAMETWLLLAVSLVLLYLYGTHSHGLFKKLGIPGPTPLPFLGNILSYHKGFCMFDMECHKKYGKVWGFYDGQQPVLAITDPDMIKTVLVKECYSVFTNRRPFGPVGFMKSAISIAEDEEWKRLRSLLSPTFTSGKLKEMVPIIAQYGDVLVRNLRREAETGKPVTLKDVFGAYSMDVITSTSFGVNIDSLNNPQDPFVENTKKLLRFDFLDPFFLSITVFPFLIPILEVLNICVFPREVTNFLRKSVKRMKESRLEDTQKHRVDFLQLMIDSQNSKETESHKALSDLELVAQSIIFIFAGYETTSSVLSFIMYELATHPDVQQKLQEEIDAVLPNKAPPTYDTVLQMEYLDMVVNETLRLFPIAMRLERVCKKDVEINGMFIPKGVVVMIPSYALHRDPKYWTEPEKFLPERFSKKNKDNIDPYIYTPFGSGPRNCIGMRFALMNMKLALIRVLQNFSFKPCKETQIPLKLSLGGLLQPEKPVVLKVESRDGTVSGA

Data set [6] has as its system plasma protein. In words: Plasma protein binding assay (human). Type of data set: in vitro ADME. From the text: (§2) Non-specific plasma protein binding can greatly affect the extent of free drug concentration which may influence the lead compound's subsequent inhibitory potential (see table 6 below).
Data set [7] can be described thus: Plasma protein binding assay (human). Type of data set: in vitro ADME. The conditions noted are these: plasma spiked 1 side; for fraction unbound: plasma.
From the text: as §2

The subject of data set [8] is plasma protein. Briefly: Plasma protein binding assay (mouse). Type of data set: in vitro ADME.
From the text: as §2

Data set [9] can be described thus: Plasma protein binding assay (mouse). Format: in vitro ADME. Particulars: plasma spiked 1 side; for fraction unbound: plasma.
From the text: as §2

For the next data set, the system named is HeLa cells. Briefly: MTT cytotoxicity assay in HeLa cells. Format: cell-based. The protocol:
The entirety of the following protocol was carried out under aseptic conditions. HeLa cells were cultured in Dulbecco's Modified Eagle's Medium (DMEM) supplemented with 10% Fetal Bovine Serum (FBS) (Sigma F7524). Cells were counted and seeded into clear bottom 96-well plates (Greiner Bio-One) at density 6,000 cells/well. 100 μl of cells were added to each well and placed in the incubator overnight. The following day medium was aspired and 100 μL of treatment was added to wells. Cells were treated with controls (medium alone, Reversine 5 μM, Apcin 25 μM). […]
In vitro cytotoxic analysis involved quantitative measurements of cell proliferation and the subsequent assessment of the relative toxicity of the compounds. (3-(4,5-Dimethylthiazol-2-yl)-2,5-Diphenyltertrazolium Bromide (MTT) is a widely utilised cytotoxic assay that measures cellular metabolic activity as an indicator for cell viability, proliferation and cytotoxicity from the reduction of water soluble yellow tetrazole MTT to insoluble purple formazan crystals by mitochondrial dehydrogenases. The insoluble purple crystalline product was dissolved in DMSO and the resulting coloured solution quantified by measuring the absorbance (570 nm). Reduction can only occur when mitochondrial reductive enzymes are active, thus a direct correlation to the number of viable cells. […]

Setting [10] is: kinetic solubility, turbidimetric.
Setting [11] is: probe testosterone, read-out: % inhibition with substrate testosterone.
Where [12] appears, read: read-out: % inhibition with substrate midazolam.
The mark [13] stands for this setting: read-out: Fraction unbound Replicate 1.
The mark [14] stands for this setting: read-out: Fraction unbound Replicate 2.
Where [15] appears, read: read-out: Fraction unbound Replicate 3.
[16] abbreviates: read-out: Mean fraction unbound.

T1 sequence (Q12834 whole entry): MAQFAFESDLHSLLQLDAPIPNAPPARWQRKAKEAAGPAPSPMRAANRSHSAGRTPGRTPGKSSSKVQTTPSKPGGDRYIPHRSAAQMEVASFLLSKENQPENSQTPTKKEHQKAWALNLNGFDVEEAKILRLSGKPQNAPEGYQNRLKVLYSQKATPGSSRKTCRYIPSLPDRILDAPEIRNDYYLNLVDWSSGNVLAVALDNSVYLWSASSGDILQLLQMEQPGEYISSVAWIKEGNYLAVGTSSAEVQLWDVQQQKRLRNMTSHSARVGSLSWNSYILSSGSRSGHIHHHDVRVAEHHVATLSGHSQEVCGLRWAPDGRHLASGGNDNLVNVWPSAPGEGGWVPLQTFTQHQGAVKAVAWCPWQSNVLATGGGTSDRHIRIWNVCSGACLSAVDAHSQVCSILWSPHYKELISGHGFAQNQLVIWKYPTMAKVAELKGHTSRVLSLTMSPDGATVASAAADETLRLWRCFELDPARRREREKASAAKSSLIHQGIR

Take `Cc1ncc([N+](=O)[O-])n1CCOC(=O)NC(Nc1ncccn1)C(Cl)(Cl)Cl` (stereo not shown) [Apcin, reference compound]: the “Inhibition of Cyclin B ubiquitylation by APC/C / APC/C activation by Cdc20” value in data set [1] is “comparatively less effective than compound o-TFB-Tyr”.

Take `c1nc2nc(Nc3ccc(N4CCOCC4)cc3)nc(NC3CCCCC3)c2[nH]1` [Reversine, reference compound]: the “Number of clones” value in data set [2] is “lower number of triple negative breast cancer cell clones”.

For `N[C@@H](Cc1ccc(O)cc1)C(=O)NCc1ccccc1C(F)(F)F` [o-TFB-Tyr, (2S)-2-amino-N-[2-(trifluoromethyl)benzyl]-3-[4-(hydroxy)phenyl]propanamide], the “Solubility in aqueous solutions” value in data set [3] is “readily soluble in aqueous solutions”. In data set [3] (setting [10]), the “Estimated Precipitation Range, Calculated mid-range” value was >100 µM. In addition, the “Estimated Precipitation Range, Lower bound” value in data set [3] (setting [10]) was 100 µM. In addition, in [3] (setting [10]), the “Estimated Precipitation Range, Upper bound” value was >100 µM. For the same molecule, the “Active transport by membrane proteins such as ABC transporters” value with Caco-2 cells (Caco2) is “not actively transported”. Further, the “Diffusion across the membrane” value in the data set on Caco-2 cells (Caco2) is given as “diffuses freely across the semipermeable membrane in both directions”. Also, the Direction A to B Mean Papp with Caco-2 cells (Caco2, A to B) is 22.1 ×10⁻⁶ cm/s. This molecule also yielded a Direction B to A Mean Papp in the data set with Caco-2 cells (Caco2, B to A) of 19.1 ×10⁻⁶ cm/s. For the same molecule, the recovery in [4] (Caco-2, Caco2, A to B, read-out: Direction A to B Mean % recovery) was 62.8%; in data set [4] (Caco-2, Caco2, B to A, read-out: Direction B to A Mean % recovery) it was 88.9%; in data set [7] it was 101%; in data set [9], 102%. Moreover, in data set [4] (Caco-2, Caco2, read-out: Efflux ratio (Mean Papp B to A/Mean Papp A to B)), the efflux ratio was found to be 0.862. Moreover, the “Metabolic stability” value in data set [5] (Human microsomes) is “stable”. Also, the “Compound remaining (% of 0 min)” value in data set [5] (Human, 0 min) was 100 % of 0 min; in [5] (Human, 5 min), 107 % of 0 min; in data set [5] (Human, 15 min) it was 43.7 % of 0 min; in data set [5] (Human, 30 min), 19.3 % of 0 min; in data set [5] (Human, 45 min), 8 % of 0 min and 8.23 % of 0 min. Besides, the “Compound remaining (% of 0 min), Control” value in data set [5] (Human, Control incubation) is reported as 89.8 % of 0 min. On CYP3A4 (CYP3A4, midazolam and testosterone as substrates), the “IC50 compared with control compounds” value is listed as “much higher than that of controls compounds”. The inhibition at 0.1 µM at CYP3A4 (setting [11]) was -0.99%; at CYP3A4 (setting [12]) it was 13.7%. The inhibition at 0.25 µM amounted to 0.136% at CYP3A4 (setting [11]) and 22.5% at CYP3A4 (setting [12]). In addition, the inhibition at 1 µM on CYP3A4 (setting [11]) came out at 4.21%; on CYP3A4 (setting [12]), 47.5%. Also, the inhibition at 2.5 µM on CYP3A4 (setting [11]) stood at 49%; at CYP3A4 (setting [12]) it was 65.6%. Also, the inhibition at 10 µM came to 77.3% at CYP3A4 (setting [11]) and 84.4% at CYP3A4 (setting [12]). The inhibition at 25 µM on CYP3A4 (setting [11]) amounted to 89.5%; at CYP3A4 (setting [12]), 91.1%. Also, the “Non-specific plasma protein binding” value in the data set on plasma protein [6] and in the data set with plasma protein [8] was “absence of non-specific plasma protein binding” throughout. The fraction unbound was found to be 0.352 in data set [7] (setting [13]); 0.328 in data set [7] (setting [14]); 0.304 in [7] (setting [15]); 0.328 in data set [7] (setting [16]); 0.28 in data set [9] (setting [13]); 0.28 in data set [9] (setting [14]). The unbound share (fraction unbound) came to 0.301 in data set [9] (setting [15]) and 0.287 in data set [9] (setting [16]). In addition, the “Number of clones” value in data set [2] was “lower number of triple negative breast cancer cell clones”. In addition, in the data set with HeLa cells (MTT, FIGS. 5 and 6), the “Relative cytotoxicity compared with other compounds” value is “higher cytotoxic effect”. Moreover, the “Cytotoxic activity, concentration range” value in the data set on HeLa cells (cytotoxicity and clonogenic studies) was in the range of 200 to 10 μM. In addition, the “Inhibition of Cyclin B ubiquitylation by APC/C / APC/C activation by Cdc20” value in [1] is “confirmed the inhibitory effect of this compound on APC/C activation by Cdc20; also recorded: confirmed the inhibition of APC/C activation by Cdc20; also recorded: causes inhibition of Cyclin B ubiquitylation by APC/C”.

The record behind these values is patent US12655091B2, “N-benzyl-alpha-aminoamides as anaphase-promoting complex/cyclosome (APC/C) inhibitors” (CONSEJO SUPERIOR DE INVESTIGACIONES CIENTÍFICAS (CSIC), priority 2020, dated 2026).
